From patent US9969742B2, “Imidazotriazinone compounds” (Ironwood Pharmaceuticals, Inc., priority 2012, dated 2018) come the findings set out here.

Structures are written as SMILES. Like-named read-outs stand apart in the source and are kept apart here.

Assay type in all cases: biochemical
One assay deals with T1, PDE1A (Homo sapiens, UniProt P54750).
T1 construct: purchased Reaction Biology Corporation, Malvern, Pa
Kind of assay: Phosphodiesterase enzyme screening assay, PDE1A. The essentials:
(§1)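 Recombinant enzymes were run in 100 mM HEPES pH 7.5, 5 mM MgCl2, 1 mM DTT, 0.003% Brij with 4.0 μM cGMP substrate, started with cGMP or cAMP, 1 h at RT, and stopped with EDTA. Fluorescent substrate and product were separated by microfluidic mobility shift.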

A further assay has as its target T2, PDE1B (Homo sapiens, UniProt Q01064).
T2 construct: purchased Reaction Biology Corporation, Malvern, Pa
In words: Phosphodiesterase enzyme screening assay, PDE1B. The essentials:
as §1

The next assay addresses T3, PDE9A2 (Homo sapiens, UniProt O76083).
T3 construct: purchased Reaction Biology Corporation, Malvern, Pa
In words: Phosphodiesterase enzyme screening assay, PDE9A2. In a few lines:
as §1

Where [1] appears, read: ratio of IC50 values PDE1A vs PDE9A2, value greater than 1 indicates greater selectivity for PDE9A2.
The mark [2] stands for this setting: ratio of IC50 values PDE1B vs PDE9A2, value greater than 1 indicates greater selectivity for PDE9A2.
[3] abbreviates: IC50 band, 4.0 μM cGMP substrate, 1 hour at R.T.
Setting [4] is: ratio of IC50 values, PDE1A versus PDE9A2, value greater than 1 indicates greater selectivity for PDE9A2.
[5] abbreviates: ratio of IC50 values, PDE1B versus PDE9A2, value greater than 1 indicates greater selectivity for PDE9A2.
[6] abbreviates: Table 1, ratio of IC50 values, value greater than 1 indicates greater selectivity for PDE9A2.
Setting [7] is: Table 1, 10 concentrations, 4.0 μM cGMP substrate, 1 hour at R.T., read-out: Band (PDE9A2 IC50).
The mark [8] stands for this setting: ratio of IC50 values, value greater than 1 indicates greater selectivity for PDE9A2.

T1 sequence (P54750 whole entry): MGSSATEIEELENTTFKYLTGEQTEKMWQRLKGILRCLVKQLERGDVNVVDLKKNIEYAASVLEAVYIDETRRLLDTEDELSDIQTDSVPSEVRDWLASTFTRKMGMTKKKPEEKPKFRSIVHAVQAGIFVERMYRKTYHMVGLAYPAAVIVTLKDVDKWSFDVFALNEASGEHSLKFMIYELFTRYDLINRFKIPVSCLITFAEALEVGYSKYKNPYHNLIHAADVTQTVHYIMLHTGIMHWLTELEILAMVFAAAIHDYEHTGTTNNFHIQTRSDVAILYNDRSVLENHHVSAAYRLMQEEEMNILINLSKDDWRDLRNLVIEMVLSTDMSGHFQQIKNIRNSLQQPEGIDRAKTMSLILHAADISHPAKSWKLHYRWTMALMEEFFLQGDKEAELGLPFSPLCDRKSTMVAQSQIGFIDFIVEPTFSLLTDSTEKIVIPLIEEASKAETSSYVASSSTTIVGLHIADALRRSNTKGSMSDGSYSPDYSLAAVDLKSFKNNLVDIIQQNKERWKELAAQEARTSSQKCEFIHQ
T2 sequence (Q01064 whole entry): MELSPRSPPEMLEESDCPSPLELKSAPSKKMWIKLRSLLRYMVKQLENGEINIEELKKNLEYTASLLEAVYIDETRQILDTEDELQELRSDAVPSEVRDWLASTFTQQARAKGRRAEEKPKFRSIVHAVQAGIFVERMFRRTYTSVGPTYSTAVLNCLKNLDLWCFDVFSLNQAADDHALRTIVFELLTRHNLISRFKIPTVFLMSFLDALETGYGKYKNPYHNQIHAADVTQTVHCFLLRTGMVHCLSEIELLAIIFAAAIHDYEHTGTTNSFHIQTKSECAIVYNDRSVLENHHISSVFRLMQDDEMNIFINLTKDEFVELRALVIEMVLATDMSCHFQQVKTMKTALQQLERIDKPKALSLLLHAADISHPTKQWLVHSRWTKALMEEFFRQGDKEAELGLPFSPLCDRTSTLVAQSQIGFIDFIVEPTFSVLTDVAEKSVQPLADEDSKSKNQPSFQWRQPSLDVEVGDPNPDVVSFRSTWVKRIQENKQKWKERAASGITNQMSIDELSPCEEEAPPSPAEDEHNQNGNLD
T3 sequence (O76083 1-533 isoform O76083-2): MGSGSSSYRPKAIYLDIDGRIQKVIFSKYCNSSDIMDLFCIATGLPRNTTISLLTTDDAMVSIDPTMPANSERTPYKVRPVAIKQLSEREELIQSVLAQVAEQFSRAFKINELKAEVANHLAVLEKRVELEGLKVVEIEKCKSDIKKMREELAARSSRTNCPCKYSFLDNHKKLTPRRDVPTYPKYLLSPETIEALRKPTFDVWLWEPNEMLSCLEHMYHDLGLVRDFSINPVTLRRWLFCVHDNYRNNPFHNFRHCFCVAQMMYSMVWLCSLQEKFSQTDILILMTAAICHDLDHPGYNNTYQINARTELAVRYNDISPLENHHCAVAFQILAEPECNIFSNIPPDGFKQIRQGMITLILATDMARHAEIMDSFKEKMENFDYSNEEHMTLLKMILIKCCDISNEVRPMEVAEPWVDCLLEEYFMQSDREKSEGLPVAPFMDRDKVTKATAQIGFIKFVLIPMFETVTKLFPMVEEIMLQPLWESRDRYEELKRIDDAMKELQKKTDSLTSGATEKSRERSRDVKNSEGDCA

Turning to `Cc1ccc(F)cc1-c1ncc2c(=O)[nH]c(C3CN(Cc4cnccn4)CC3C)nn12` (single isomer, unassigned; (+)) [(+)-7-(5-fluoro-2-methylphenyl)-2-((3,4-trans)-4-methyl-1-(pyrazin-2-ylmethyl)pyrrolidin-3-yl)imidazo[5,1-f][1,2,4]triazin-4(3H)-one], the “PDE1A selectivity (versus PDE9A2)” value on PDE1A (setting [1]) is 85. Besides, on PDE1B (setting [2]), the “PDE1B selectivity (versus PDE9A2)” value stood at 74. Also, the 50% inhibitory concentration (IC50) against PDE9A2 (setting [3]) was less than 1000 nM.
As for `Cc1ccc(F)cc1-c1ncc2c(=O)[nH]c(C3CN(Cc4ccccn4)CC3C)nn12` (single isomer, unassigned; (+)) [(+)-7-(5-fluoro-2-methylphenyl)-2-((3,4-trans)-4-methyl-1-(pyridin-2-ylmethyl)pyrrolidin-3-yl)imidazo[5,1-f][1,2,4]triazin-4(3H)-one], the “PDE1A selectivity (versus PDE9A2)” value on PDE1A (setting [1]) was 560. Besides, on PDE1B (setting [2]), the “PDE1B selectivity (versus PDE9A2)” value worked out at 277. The same compound yielded an IC50 at PDE9A2 (setting [3]) of less than 1000 nM.
As to `Cc1ccc(F)cc1-c1ncc2c(=O)[nH]c(C3CN(Cc4cccnc4)CC3C)nn12` (single isomer, unassigned; (+)) [(+)-7-(5-fluoro-2-methylphenyl)-2-((3,4-trans)-4-methyl-1-(pyridin-3-ylmethyl)pyrrolidin-3-yl)imidazo[5,1-f][1,2,4]triazin-4(3H)-one], the “PDE1A selectivity (versus PDE9A2)” value at PDE1A (setting [1]) is reported as 770. Further, on PDE1B (setting [2]), the “PDE1B selectivity (versus PDE9A2)” value is recorded as 505. In addition, the 50% inhibitory concentration (IC50) on PDE9A2 (setting [3]) is less than 1000 nM.
As to `CC1CN(Cc2ccc(F)cc2)CC1c1nn2c(C3CCCC3)ncc2c(=O)[nH]1` (single isomer, unassigned; (+)) [(+)-7-cyclopentyl-2-((3,4-trans)-1-(4-fluorobenzyl)-4-methylpyrrolidin-3-yl)imidazo[5,1-f][1,2,4]triazin-4(3H)-one], the “PDE1A selectivity (versus PDE9A2)” value on PDE1A (setting [4]) is listed as 41. Further, the “PDE1B selectivity (versus PDE9A2)” value on PDE1B (setting [5]) is listed as 104. Also, on PDE9A2 (read-out: Band (PDE9A2 IC50)), the 50% inhibitory concentration (IC50) is less than 1000 nM.
For the compound `CC1CN(Cc2cn3ccccc3n2)CC1c1nn2c(C3CCCC3)ncc2c(=O)[nH]1` (single isomer, unassigned; (+)) [(+)-7-cyclopentyl-2-((3,4-trans)-1-(imidazo[1,2-a]pyridin-2-ylmethyl)-4-methylpyrrolidin-3-yl)imidazo[5,1-f][1,2,4]triazin-4(3H)-one], the “PDE1A selectivity (versus PDE9A2)” value at PDE1A (setting [4]) amounted to 57. Further, the “PDE1B selectivity (versus PDE9A2)” value on PDE1B (setting [5]) was 125. For the same compound, the IC50 at PDE9A2 (read-out: Band (PDE9A2 IC50)) was less than 1000 nM.
On the same counts, the results for `CC1CN(Cc2ncccn2)CC1c1nn2c(C3CCCC3)ncc2c(=O)[nH]1` (single isomer, unassigned; (+)) [(+)-7-cyclopentyl-2-((3,4-trans)-4-methyl-1-(pyrimidin-2-ylmethyl)pyrrolidin-3-yl)imidazo[5,1-f][1,2,4]triazin-4(3H)-one] are 60, 45 and less than 1000 nM.
As for `CC1CN(Cc2ccc(F)cc2)CC1c1nn2c(C3CCC(F)(F)CC3)ncc2c(=O)[nH]1` (single isomer, unassigned; (+)) [(+)-(4,4-difluorocyclohexyl)-2-((3,4-trans)-1-(4-fluorobenzyl)-4-methylpyrrolidin-3-yl)imidazo[5,1-f][1,2,4]triazin-4(3H)-one], at PDE1A (setting [6]), the “PDE1A selectivity (versus PDE9A2)” value worked out at 1453. Further, the “PDE1B selectivity (versus PDE9A2)” value at PDE1B (setting [6]) is given as 2980. The IC50 on PDE9A2 (setting [7]) was less than 1000 nM.
As for `CC1CN(C)CC1c1nn2c(C3CCOCC3)ncc2c(=O)[nH]1` (single isomer, unassigned; (+)) [(+)-((3,4-trans)-1,4-dimethylpyrrolidin-3-yl)-7-(tetrahydro-2H-pyran-4-yl)imidazo[5,1-f][1,2,4]triazin-4(3H)-one], the “PDE1A selectivity (versus PDE9A2)” value on PDE1A (setting [6]) is 75. Moreover, on PDE1B (setting [6]), the “PDE1B selectivity (versus PDE9A2)” value worked out at 121. Also, the half-maximal inhibitory concentration (IC50) on PDE9A2 (setting [7]) is less than 1000 nM.
`CC1CN(Cc2ccccc2C2CC2)CC1c1nn2c(C3CCOCC3)ncc2c(=O)[nH]1` (single isomer, unassigned; (-)) [(−)-2-((3,4-trans)-1-(2-cyclopropylbenzyl)-4-methylpyrrolidin-3-yl)-7-(tetrahydro-2H-pyran-4-yl)imidazo[5,1-f][1,2,4]triazin-4(3H)-one]: the “PDE1A selectivity (versus PDE9A2)” value at PDE1A (setting [6]) is 685. Moreover, the “PDE1B selectivity (versus PDE9A2)” value on PDE1B (setting [6]) was found to be 505. Moreover, the IC50 on PDE9A2 (setting [7]) was less than 1000 nM.
Take `CC1CN(C(=O)c2ccccc2F)CC1c1nn2c(C3CCOCC3)ncc2c(=O)[nH]1` (single isomer, unassigned; (-)) [(−)-2-((3,4-trans)-1-(2-fluorobenzoyl)-4-methylpyrrolidin-3-yl)-7-(tetrahydro-2H-pyran-4-yl)imidazo[5,1-f][1,2,4]triazin-4(3H)-one]: the “PDE1A selectivity (versus PDE9A2)” value at PDE1A (setting [6]) is reported as 9. Besides, the “PDE1B selectivity (versus PDE9A2)” value at PDE1B (setting [6]) amounted to 7. Also, on PDE9A2 (setting [7]), the 50% inhibitory concentration (IC50) was less than 1000 nM.
For the compound `CC1CN(C(=O)c2cccc(F)c2)CC1c1nn2c(C3CCOCC3)ncc2c(=O)[nH]1` (single isomer, unassigned; (-)) [(−)-2-((3,4-trans)-1-(3-fluorobenzoyl)-4-methylpyrrolidin-3-yl)-7-(tetrahydro-2H-pyran-4-yl)imidazo[5,1-f][1,2,4]triazin-4(3H)-one], the “PDE1A selectivity (versus PDE9A2)” value on PDE1A (setting [6]) is 26. The “PDE1B selectivity (versus PDE9A2)” value on PDE1B (setting [6]) turned out to be 26. Besides, the IC50 on PDE9A2 (setting [7]) was less than 1000 nM.
As for `Cc1ccc(F)cc1-c1ncc2c(=O)[nH]c(C3CN(Cc4ccc(Cl)cc4)CC3C)nn12` (single isomer, unassigned; (-)) [(−)-2-((3,4-trans)-1-(4-chlorobenzyl)-4-methylpyrrolidin-3-yl)-7-(5-fluoro-2-methylphenyl)imidazo[5,1-f][1,2,4]triazin-4(3H)-one], the “PDE1A selectivity (versus PDE9A2)” value on PDE1A (setting [1]) stood at 3375. For the same compound, on PDE1B (setting [2]), the “PDE1B selectivity (versus PDE9A2)” value is reported as 1735. This compound returned an IC50 on PDE9A2 (setting [3]) of less than 1000 nM.
With `CC1CN(Cc2nc3ccccc3[nH]2)CC1c1nn2c(C3CCOCC3)ncc2c(=O)[nH]1` (single isomer, unassigned; (-)) [(−)-2-((3,4-trans)-1-((1H-benzo[d]imidazol-2-yl)methyl)-4-methylpyrrolidin-3-yl)-7-(tetrahydro-2H-pyran-4-yl)imidazo[5,1-f][1,2,4]triazin-4(3H)-one], on PDE1A (setting [6]), the “PDE1A selectivity (versus PDE9A2)” value was 433. Moreover, at PDE1B (setting [6]), the “PDE1B selectivity (versus PDE9A2)” value is 540. In addition, the concentration for half-maximal inhibition (IC50) on PDE9A2 (setting [7]) was less than 1000 nM.
`CC1CN(Cc2ccc(-c3ccccc3)cc2)CC1c1nn2c(C3CCOCC3)ncc2c(=O)[nH]1` (single isomer, unassigned; (-)) [(−)-2-((3,4-trans)-1-([1,1′-biphenyl]-4-ylmethyl)-4-methylpyrrolidin-3-yl)-7-(tetrahydro-2H-pyran-4-yl)imidazo[5,1-f][1,2,4]triazin-4(3H)-one]: the “PDE1A selectivity (versus PDE9A2)” value on PDE1A (setting [8]) came to 2875. On PDE1B (setting [8]), the “PDE1B selectivity (versus PDE9A2)” value is reported as 2060. The IC50 on PDE9A2 (read-out: Band (PDE9A2 IC50)) was less than 1000 nM.
For the compound `CC1CN(Cc2cn3cccnc3n2)CC1c1nn2c(C3CCOCC3)ncc2c(=O)[nH]1` (single isomer, unassigned; (-)) [(−)-2-((3,4-trans)-1-(imidazo[1,2-a]pyrimidin-2-ylmethyl)-4-methylpyrrolidin-3-yl)-7-(tetrahydro-2H-pyran-4-yl)imidazo[5,1-f][1,2,4]triazin-4(3H)-one], on PDE1A (setting [6]), the “PDE1A selectivity (versus PDE9A2)” value is on record as 188. Besides, the “PDE1B selectivity (versus PDE9A2)” value at PDE1B (setting [6]) worked out at 591. Also, the IC50 at PDE9A2 (setting [7]) is less than 1000 nM.
For `CC1CN(Cc2cn3ncccc3n2)CC1c1nn2c(C3CCOCC3)ncc2c(=O)[nH]1` (single isomer, unassigned; (-)) [(−)-2-((3,4-trans)-1-(imidazo[1,2-b]pyridazin-2-ylmethyl)-4-methylpyrrolidin-3-yl)-7-(tetrahydro-2H-pyran-4-yl)imidazo[5,1-f][1,2,4]triazin-4(3H)-one], in that order: 8, 12 and less than 1000 nM.
As to `CC1CN(Cc2ccccc2)CC1c1nn2c(C3CCOCC3)ncc2c(=O)[nH]1` (single isomer, unassigned; (-)) [(−)-2-((3,4-trans)-1-benzyl-4-methylpyrrolidin-3-yl)-7-(tetr] [(−)-2-((3,4-trans)-1-benzyl-4-methylpyrrolidin-3-yl)-7-(tetrahydro-2H-pyran-4-yl)imidazo[1,5-f][1,2,4]triazin-4(3H)-one], the “PDE1A selectivity (versus PDE9A2)” value at PDE1A (setting [6]) amounted to 465. Moreover, the “PDE1B selectivity (versus PDE9A2)” value on PDE1B (setting [6]) is on record as 550. In addition, the IC50 at PDE9A2 (setting [7]) is less than 1000 nM.
Turning to `CC1CN(Cc2ccc(-c3ccncc3)cc2)CC1c1nn2c(C3CCOCC3)ncc2c(=O)[nH]1` (single isomer, unassigned; (-)) [(−)-2-((3,4-trans)-4-methyl-1-(4-(pyridin-4-yl)benzyl)pyrrolidin-3-yl)-7-(tetrahydro-2H-pyran-4-yl)imidazo[5,1-f][1,2,4]triazin-4(3H)-one], the “PDE1A selectivity (versus PDE9A2)” value on PDE1A (ratio of IC50 values, PDE1A versus PDE9A2, value greater than 1 = greater selectivity for PDE9A2) came out at 679. Also, at PDE1B (ratio of IC50 values, PDE1B versus PDE9A2, value greater than 1 = greater selectivity for PDE9A2), the “PDE1B selectivity (versus PDE9A2)” value is reported as 1560. On PDE9A2 (Table 3, 4.0 μM cGMP substrate, 1 hour at R.T., read-out: Band (PDE9A2 IC50)), the IC50 was less than 1000 nM.
